From patent US20040101484A1, “Nasal delivery of apomorphine in combination with glycol derivatives” (priority 1998, published 2004)

Legend:
[1] = tested on: patients suffering from psychogenic erectile dysfunction; assay: In-clinic efficacy and safety study of nasal apomorphine HCl, double blind double dummy placebo controlled cross over, self graded questionnaire; format: in vivo, human; conditions: nasal administration, containing propylene glycol
[2] = tested on: patients suffering from erectile dysfunction; conditions: intranasal delivery, 2.5 mg to 3.5 mg; cited from earlier work
[3] = tested on: healthy male subjects; assay: Adverse nasal effects after nasal administration of apomorphine HCl formulations to male subjects (Examples 1-6); format: in vivo, human
Method: A series of experiments were performed to illustrate features and advantages of the present invention. Several conditions were common to each experiment. […] Further, none of the subjects took any medication for two weeks prior to these experiments.
A different dosage of apomorphine was administered in each experiment to determine a preferred range of dosages having minimal adverse effects.

[4] = 0.5 mg, without glycol derivatives, three subjects
[5] = 2.0 mg, without glycol derivatives, nine subjects

With `CN1CCc2cccc3c2[C@H]1Cc1ccc(O)c(O)c1-3` [apomorphine] the “Induction of an erection (overall conclusion)” value [1] was “effective in inducing an erection”, the “Induction of an erection compared with nasal placebo or Viagra” value ([1]; listed as apomorphine HCI) was “more effective than a nasal placebo or Viagra in inducing an erection” and the “Induction of an erection compared with nasal placebo or Viagra” value ([1]; listed as apomorphine HCl) was “more effective than nasal placebo or Viagra in inducing an erection”. For the same compound, the Eliciting an erection [2] was “effective for eliciting an erection”, the “Side effects suffered by study participants” value [2] was “extensive and serious side effects including hypotension, nausea, vomiting, impaired vision, diaphoresis and ashen coloring” and the “Adverse nasal effects (overall conclusion)” value (shortened to “Adverse nasal effects”) ([3]; 0.5 mg, does not contain glycol derivatives) was “some adverse nasal effects”. For the same compound, the “Number of subjects who did not suffer any symptoms” value [3, 4] was “One”, the “Number of subjects who suffered from mild nasal burning or pain” value [3, 4] was “two” and the “Adverse nasal effects” value ([3]; 1.0 mg dose, does not contain glycol derivatives) was “some adverse nasal effects”. For the same compound, the “Adverse nasal effects” value ([3]; 1.0 mg, composition with propylene glycol (Table 5), six subjects) was “none of the subjects suffered from adverse nasal effects”, the “Adverse nasal effects” value ([3]; 2.0 mg, composition with propylene glycol (Table 6), six subjects) was “none of the subjects suffered from adverse nasal effects” and the “Adverse nasal effects” value ([3]; 2.0 mg, without glycol derivatives) was “some adverse nasal effects”. The “Number of subjects who suffered from mild nasal burning” value [3, 5] was “One”, the “Number of subjects who suffered from mild to moderate nasal burning” value [3, 5] was “one” and the “Number of subjects who suffered from mild unusual taste” value [3, 5] was “four”. For the same compound, the “Adverse nasal effects” value ([3]; 4.0 mg, does not contain glycol derivatives) was “some adverse nasal effects” and the “Number of subjects who experienced moderate sneezing, somewhat troublesome” value ([3]; 4.0 mg, does not contain glycol derivatives, two subjects) was “One”.
